Test results taken from ChEMBL document CHEMBL5674860, “Optimized Dual-Glo Assay to identify co-culture-induced drug vulnerabilities in 3D CRC models” (2024).

Key:
Format in all cases: functional, Homo sapiens
Parameters in all cases: dose or concentration left out as unconfirmed
Colon cancer organoid [1] = test: Optimized Dual-Glo assay to identify co-culture induced drug vulnerabilities using donated chemical probes and chemogenomics kinase set in O14 CRC organoid and F14 CAF mono and co-culture. […] Cell viability is reported both mono and co-culture models.
Colon cancer organoid [2] = test: Optimized Dual-Glo assay to identify co-culture induced drug vulnerabilities using donated chemical probes and chemogenomics kinase set in O20 CRC organoid and F20 CAF mono and co-culture. […] Cell viability is reported both mono and co-culture models.
Colon cancer organoid [3] = test: Optimized Dual-Glo assay to identify co-culture induced drug vulnerabilities using donated chemical probes and chemogenomics kinase set in O06 CRC organoid and F06 CAF mono and co-culture. […] Cell viability is reported both mono and co-culture models.
[4] = Culture type Co-Culture, Transduced with Lucferase2-P2A-EGFP lentivirus
[5] = Culture type Co-Culture, Transduced with Renilla-dsRed lentivirus
[6] = Culture type Mono-Culture, Transduced with Lucferase2-P2A-EGFP lentivirus
[7] = Culture type Mono-Culture, Transduced with Renilla-dsRed lentivirus

Compound	Cell Viability (Colon cancer organoid [1]; [4]) [%]	Cell Viability (Colon cancer organoid [1]; [5]) [%]	Cell Viability (Colon cancer organoid [1]; [6]) [%]	Cell Viability (Colon cancer organoid [1]; [7]) [%]	Cell Viability (Colon cancer organoid [2]; [4]) [%]	Cell Viability (Colon cancer organoid [2]; [5]) [%]	Cell Viability (Colon cancer organoid [2]; [6]) [%]	Cell Viability (Colon cancer organoid [2]; [7]) [%]	Cell Viability (Colon cancer organoid [3]; [4]) [%]	Cell Viability (Colon cancer organoid [3]; [5]) [%]	Cell Viability (Colon cancer organoid [3]; [6]) [%]	Cell Viability (Colon cancer organoid [3]; [7]) [%]
CCCCN(CCCC)C(=O)CN1C[C@@H](c2cc(OC)c3c(c2)OCO3)[C@H](C(=O)O)[C@H]1CC(C)(C)CCC [A-545]	105.072	96.9928	119.694	109.859	123.099	97.2502	106.602	112.439	124.297	133.906	113.751	92.0951
CSc1cccnc1N1CCN(Cc2nc3ccccc3[nH]2)CC1 [A-769]	93.5096	109.84	108.274	96.7022	125.432	98.3481	117.315	102.928	120.489	139.823	101.067	109.755
CN(C)CC#Cc1ccc(OCCCc2sc(N3CCc4cccc(C(=O)Nc5nc6ccccc6s5)c4C3)nc2C(=O)O)c(F)c1 [A-1155463]	48.5807	127.556	26.2999	75.159	1.175	177.943	3.867	58.9374	0.3385	128.541	0.4136	37.2528
CO[C@H]1CC[C@H](CNc2ccc(S(=O)(=O)NC(=O)c3ccc(N4CCN(CC5=C(c6ccc(Cl)cc6)CC(C)(C)CC5)CC4)cc3Oc3cnc4[nH]ccc4c3)cc2[N+](=O)[O-])CC1 [A-1211212]	35.4826	44.6988	55.1244	87.836	16.3832	159.244	32.5112	71.0169	8.693	108.861	18.6642	86.311
COc1ccc2c(c1)O[C@H](c1ccc(OC)c(OC)c1)C[C@@H]2NC(=O)C1(c2ccc3c(c2)OC(F)(F)O3)CC1 [A-1596584]	97.6687	114.369	74.3649	92.2647	72.8626	142.746	90.2448	98.4012	86.7173	88.6658	66.4869	108.119
COc1ccc2c(c1)O[C@@H](c1ccc(OC)c(OC)c1)C[C@H]2NC(=O)C1(c2ccc3c(c2)OC(F)(F)O3)CC1 [A-1596586]	96.097	118.297	94.5524	101.637	84.3805	101.93	87.5429	80.1817	95.9961	117.187	95.5945	101.185
CCNC(=O)c1cc2c(-c3cc(C(C)(C)O)ccc3Oc3c(C)cc(F)cc3C)cn(C)c(=O)c2[nH]1 [ABBV-744]	55.2801	319.971	42.072	212.265	58.1744	215.224	60.9117	122.12	91.6049	287.135	45.0108	272.327
CC#CC(=O)N1CCC[C@H]1c1nc(-c2ccc(C(=O)Nc3ccccn3)cc2)c2c(N)nccn12 [ACALABRUTINIB]	70.2708	100.717	59.6403	100.701	96.1769	99.9657	56.8336	71.1135	96.562	83.4698	98.0139	99.6421
CN(C)C/C=C/C(=O)Nc1cc2c(Nc3ccc(F)c(Cl)c3)ncnc2cc1O[C@H]1CCOC1.O=C(O)/C=C\C(=O)O.O=C(O)/C=C\C(=O)O [AFATINIB DIMALEATE]	29.2387	54.1607	5.719	44.7132	37.5755	73.123	10.3381	31.0858	26.678	56.3894	6.9021	44.0198
